One compound from patent US4690935A, “Inhibition of tumor growth and metastasis with calcium channel blocker compounds” (Wayne State University, priority 1983, dated 1987) can be followed below.

SMILES strings stand for the structures.

This assay deals with Platelet. As to the kind of experiment: Tumor cell (Lewis Lung Carcinoma, 3LL) induced platelet aggregation (TCIPA). It counts as cell-based, human. The settings on record: 3LL cells. The method, then:
Blood (45 ml) was drawn from the […] vein of healthy, fasted, aspirin free (at least two weeks) human volunteers into a plastic syringe containing 5 ml of 4.8% dextrose with 50 U/ml heparin buffered by 25 mM HEPES, pH 7.5. An 18 gauge needle was used to prevent hemolysis. The heparinized blood was gently mixed by inverting the syringe five times and then the blood was transfused into two 40 ml plastic centrifuge tubes and centrifuged for 10 min at 163×g. The resulting platelet rich plasma (PRP; the supernatant fraction) was decanted using an adjustable SMI pipette set at 6 ml. Platelet poor plasma (PPP) was prepared by centrifugation of PRP for 10 min at 1086×g. Platelet poor plasma was used to standardize the platelet concentration in PRP to 3×10^8 /ml. Platelet concentrations were determined using a Coulter Model ZBI cell counter.
Platelet aggregation was measured photometrically using a Sienco Model DP-247E dual channel aggregometer and recorded on a Sienco Model B-5000 dual channel recorder. Aliquots of PRP (250 microliters at 3×10^8 platelets/ml) were transferred into aggregometry cuvettes and stirred at a constant speed of 800 RPM at 37° C. Platelet aggregation studies were designed and run as individually controlled samples. BAY e 9736 was dissolved in either PEG-400 or […] (DMSO).
BAY e 9736 in PEG-400 alone was aliquoted into the cuvettes prior to the addition of the PRP. Immediately after the addition of the PRP, the cuvettes were placed into the aggregometer. After two minutes (to allow for the stabilization of the platelet preparation and mixing of the BAY e 9736), ADP or tumor cells were added in 20 microliter aliquots to induce platelet aggregation.
The calcium channel blocker nifedipine was tested for its ability to inhibit tumor cell induced platelet aggregation (TCIPA). Nifedipine (20 mg) was dissolved in one milliliter of abolute ethanol:PEG-400 (1:1), and then diluted 1:10 with the same ethanol:PEG-400 mixture. […]

Take `COC(=O)C1=C(C)NC(C)=C(C(=O)OC)C1c1ccccc1[N+](=O)[O-]` [nifedipine]: the “effect on tumor cell induced platelet aggregation (in words)” value is “can inhibit TCIPA in a dose dependent fashion”. Under “Homo sapiens, 0.015 mg/ml, read-out: INHIBITION OF CONTROL TCIPA”, the inhibition (as a rule, the relative decrease from the control value, in per cent) at 15 µg/mL amounted to 22%. Further, under “Homo sapiens, 0.15 mg/ml, read-out: INHIBITION OF CONTROL TCIPA”, the inhibition at 150 µg/mL came to 42%.
